Non-standard residues stand in square brackets, D forms with d. No end group written: not given here. Sta = CC(C)C[C@H](N)[C@@H](O)CC(=O)O
Assays:
LAT1 = biological target: T1, LAT1 (Mus musculus, UniProt Q9Z127); test: Ability to bind to LAT1: inhibition of [14C]-L-leucine uptake in astrocytes; assay type: cell-based; details: mouse primary astrocytes, 0.76 μM [14C]-L-leucine, 5 min, 37 °C
T1 construct: endogenous in cells; host or cells: mouse primary astrocytes (C57BL/6JOlaHsd), cortex and hippocampi
Description: For the transporter-binding studies, the astrocytes were seeded on 24-well plates with a density of 10 × 10^4 cells/well 3 days before the experiments. After removal of the culture medium, the cells were carefully washed with pre-warmed HBSS (Hank’s balanced salt solution) containing choline chloride (125 mM), KCl (4.8 mM), MgSO4 (1.2 mM), KH2PO4 (1.2 mM), CaCl2 (1.3 mM), glucose (5.6 mM), and HEPES (25 mM) adjusted to pH 7.4 with 1 M NaOH. The cells were pre-incubated with 500 μL of pre-warmed HBSS at 37 °C for 5 min before the experiments. To study the ability of studied compounds to inhibit the uptake of a known LAT1 substrate, the cells were incubated at 37 °C for 5 min with an uptake buffer (HBSS, 250 μL) containing 0.76 μM (0.25 mCi/mL or […]) of [^14C]-L-leucine (PerkinElmer, Waltham, MA, USA) and 0.1–1000 μM of studied compound (or HBSS as blank). After incubation, the uptake was stopped by adding 500 μL of ice-cold HBSS, and the cells were washed two times with ice-cold HBSS (2 × 500 μL). The cells were then lysed with 500 μL of NaOH (0.1 M) for 60 min and the lysate was mixed with 3.5 mL of Emulsifier-Safe cocktail (Ultima Gold, PerkinElmer, Waltham, MA, USA). The radioactivity in the cells was measured by liquid scintillation counting (MicroBeta^2 counter, PerkinElmer Waltham, MA, USA). Half of the maximum inhibitory concentration (IC50) values were calculated by nonlinear regression analysis (fitting the curve to log (concentration) vs. remaining normalized viability).

[1] = system: MCF-7 human breast adenocarcinoma cells; test: Cell viability of MCF-7 cells with cisplatin co-treatment (resazurin); assay type: cell-based; details: 100 μM, 72 h incubation
[2] = biological target: T2, purified human β-site amyloid precursor protein (APP) cleaving enzyme 1 (BACE1) (Homo sapiens, UniProt P56817); test: BACE1 FRET inhibition assay; assay type: biochemical; details: 0.25 μM, 30 min
T2 construct: purchased AnaSpec, Inc. (Fremont, CA, USA), SensoLyte 520 BACE1 Assay kit
Source text: A fluorometric assay was used to screen the inhibitory effect of the studied compounds on purified human β-site amyloid precursor protein (APP) cleaving enzyme 1 (BACE1) using a fluorescence resonance energy transfer (FRET) peptide technique (SensoLyte© 520 BACE1 Assay kit, AnaSpec, Inc., Fremont, CA, USA) according to the manufacturer’s protocol. […] The sequence of the FRET peptide has been derived from the β-secretase cleavage site of β-amyloid precursor protein (APP) with Swedish mutation, which enhances β-secretase to process APP resulting in an early onset of AD. Thus, active β-secretase cleaved the FRET substrate into two separate fragments resulting in the release of HiLyte™ Fluor 488 fluorescence that was measured by the Envision plate reader (EnVision, Perkin Elmer, Waltham, MA, USA) at λex 490 nm and λem 520 nm.

caspase-3/-7 = test: Caspase-3/-7 in brain of LPS-induced neuroinflammation mice; assay type: in vivo, mouse; details: LPS 250 μg/kg i.p. for 3 days, relative to control
Description: Adult male C57BL/6JOlaHsd mice (Jackson Laboratories, Bar Harbor, ME, USA) were supplied by Envigo (Venray, Netherlands). Mice were housed in stainless steel cages on a 12-h light (07:00–19:00) and 12-h dark (19:00–07:00) cycle at an ambient temperature of 22 ± 1 °C with a relative humidity of 50–60%. All experiments were carried out during the light phase. Tap water and food pellets (Lactamin R36; Lactamin AB, Södertälje, Sweden) were available ad libitum. Neuroinflammation was induced by the treatment with LPS 250 μg/kg i.p once per day for 3 consequent days followed by decapitation on the 4th day. The animals were allocated to one of four treatment groups (n = 6 per group): (1) LPS-treated mice, (2) mice treated with LPS and the studied compound (30 μmol/kg; i.v.) for 3 days and 120 min before the decapitation on the 4th day (preventative efficacy), (3) mice treated with LPS for 3 days and with the studied compound (30 μmol/kg; i.v.) only for the last 2 days, and (4) control mice treated with 0.9% NaCl solution i.p. once per day for 3 days. After decapitation, mouse blood and brain samples were collected. […] The plasma layer was centrifuged again at 12,000 × g to remove the platelets. Plasma was stored at − 80 °C until analysis. The brains were snap-frozen in liquid nitrogen and stored at − 80 °C until analysis.
The effects of the compounds on the enzyme activity of caspase-3 and caspase-7 were evaluated from the snap-frozen mouse brain. Pieces of tissues (n = 3) were homogenized in 50 mM Tris–HCl (pH 7.4) 1:10 (w/v) with a bead mill homogenizer. […] The enzyme activity was measured with an Apo-ONE Homogenous Caspase-3/7 Assay kit (Promega Corporation, Madison, WI, USA) according to the manufacturer’s instruction. The assay was performed on 96-well plates, each sample having 3 replicates. Each of the sample wells contained 100 μL of the previously collected supernatant and 100 μL of the prepared Apo-ONE reagent. The blank measurement was carried out with the homogenization buffer and Apo-ONE reagent. Once all the samples and reagents were pipetted in the wells, the plate was carefully shaken for 30 s and left for incubation in dark at room temperature. The fluorescence was measured after the incubation with an EnVision 2104 Multilabel Reader (PerkinElmer, Waltham, MA, USA), with λex 499 nm and λem 521 nm. The measurement was repeated on multiple time points between 0.5 and 24 h.

[3] = system: prostaglandin E2 (PGE2) production; test: Brain PGE2 production in LPS-induced mice; assay type: in vivo, mouse; details: LPS 250 μg/kg per day for 3 days; control 5.72 ± 1.83
Description: Adult male C57BL/6JOlaHsd mice (Jackson Laboratories, Bar Harbor, ME, USA) were supplied by Envigo (Venray, Netherlands). Mice were housed in stainless steel cages on a 12-h light (07:00–19:00) and 12-h dark (19:00–07:00) cycle at an ambient temperature of 22 ± 1 °C with a relative humidity of 50–60%. All experiments were carried out during the light phase. Tap water and food pellets (Lactamin R36; Lactamin AB, Södertälje, Sweden) were available ad libitum. Neuroinflammation was induced by the treatment with LPS 250 μg/kg i.p once per day for 3 consequent days followed by decapitation on the 4th day. […]
The effects of the studied compounds to inhibit PGE2 production in the mouse brain were evaluated after LPS-induction as curative and preventative treatments. […] The data were acquired using the Agilent MassHunter Workstation software (version B.06.00) and processed with the Quantitative Analysis (B.07.00) software. The lower limit of quantification (LLOQ) for PGE2 was 1 nM.

T1 sequence (Q9Z127 whole entry): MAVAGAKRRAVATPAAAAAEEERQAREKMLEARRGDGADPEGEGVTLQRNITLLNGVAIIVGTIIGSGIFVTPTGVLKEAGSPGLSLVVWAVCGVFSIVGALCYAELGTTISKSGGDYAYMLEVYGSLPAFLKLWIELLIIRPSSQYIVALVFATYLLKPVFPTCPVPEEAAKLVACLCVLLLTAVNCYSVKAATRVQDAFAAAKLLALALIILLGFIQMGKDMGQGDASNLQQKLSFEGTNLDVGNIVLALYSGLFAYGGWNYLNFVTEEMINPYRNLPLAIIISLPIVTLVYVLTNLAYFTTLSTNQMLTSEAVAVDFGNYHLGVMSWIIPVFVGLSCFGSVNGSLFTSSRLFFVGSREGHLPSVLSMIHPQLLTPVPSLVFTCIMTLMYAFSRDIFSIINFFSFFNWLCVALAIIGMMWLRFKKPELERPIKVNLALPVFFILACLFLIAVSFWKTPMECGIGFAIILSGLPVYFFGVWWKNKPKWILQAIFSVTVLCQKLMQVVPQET
T1 sequence (P10852 whole entry partner): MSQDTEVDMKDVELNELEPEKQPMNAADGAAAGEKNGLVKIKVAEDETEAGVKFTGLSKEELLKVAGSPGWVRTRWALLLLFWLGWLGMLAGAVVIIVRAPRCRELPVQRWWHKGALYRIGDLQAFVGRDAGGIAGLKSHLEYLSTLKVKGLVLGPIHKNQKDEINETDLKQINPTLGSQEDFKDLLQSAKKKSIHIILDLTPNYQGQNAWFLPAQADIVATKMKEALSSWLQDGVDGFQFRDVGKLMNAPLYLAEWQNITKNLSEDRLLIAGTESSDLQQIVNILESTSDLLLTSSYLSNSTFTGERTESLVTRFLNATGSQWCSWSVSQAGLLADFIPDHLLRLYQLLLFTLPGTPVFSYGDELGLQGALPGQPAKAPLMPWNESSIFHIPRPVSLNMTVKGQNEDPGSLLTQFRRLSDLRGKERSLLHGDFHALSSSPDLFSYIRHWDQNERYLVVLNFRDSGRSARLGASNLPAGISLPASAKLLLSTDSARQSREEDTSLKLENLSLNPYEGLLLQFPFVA
T2 sequence (P56817 22-501 limits assumed): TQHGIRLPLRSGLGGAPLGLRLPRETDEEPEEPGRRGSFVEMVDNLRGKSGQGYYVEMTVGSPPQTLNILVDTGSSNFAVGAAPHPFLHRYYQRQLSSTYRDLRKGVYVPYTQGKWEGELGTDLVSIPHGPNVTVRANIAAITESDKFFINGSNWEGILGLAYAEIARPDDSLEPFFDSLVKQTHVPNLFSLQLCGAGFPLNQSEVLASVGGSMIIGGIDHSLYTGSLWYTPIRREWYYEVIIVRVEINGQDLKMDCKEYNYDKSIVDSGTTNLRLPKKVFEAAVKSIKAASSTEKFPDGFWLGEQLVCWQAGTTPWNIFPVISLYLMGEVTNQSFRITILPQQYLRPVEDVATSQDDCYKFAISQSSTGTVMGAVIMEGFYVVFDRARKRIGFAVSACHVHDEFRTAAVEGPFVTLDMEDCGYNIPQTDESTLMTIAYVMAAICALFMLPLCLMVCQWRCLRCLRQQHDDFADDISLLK

## CNC(=O)COc1ccc(-c2c(C#N)c(NC(=O)c3cccc(C[C@H](N)C(=O)O)c3)n3c(nc4ccccc43)c2C#N)cc1 [LAT1 inhibitor, KMH-233, reference compound]
LAT1
  IC50: 14.4 ± 1.2 µM
LAT1; listed as LAT1-inhibitor
  IC50: 14 µM

## N.N.[Cl][Pt][Cl] [cisplatin, reference compound]
[1]
  Inhibition of MCF-7 cell growth: 51%

## KTEEISEVN-Sta-VAEF-NH2 (KTEEISEVN[Sta]VAEF-NH2; N-terminus assumed; SMILES CC[C@H](C)[C@H](NC(=O)[C@H](CCC(=O)O)NC(=O)[C@H](CCC(=O)O)NC(=O)[C@@H](NC(=O)[C@@H](N)CCCCN)[C@@H](C)O)C(=O)N[C@@H](CO)C(=O)N[C@@H](CCC(=O)O)C(=O)N[C@H](C(=O)N[C@@H](CC(N)=O)C(=O)N[C@@H](CC(C)C)[C@@H](O)CC(=O)N[C@H](C(=O)N[C@@H](C)C(=O)N[C@@H](CCC(=O)O)C(=O)N[C@@H](Cc1ccccc1)C(N)=O)C(C)C)C(C)C) [BACE1 inhibitor, reference compound]
[2]
  Inhibition of BACE1 activity: ca. 86%

## lipopolysaccharide [LPS]
caspase-3/-7
  Brain caspase-3/-7 levels, LPS alone: 137%
[3]
  Brain PGE2 production, LPS alone: 16.56 ± 2.45 nmol of PGE2/mg tissue

Reference: PMC7515946, “Targeting of Perforin Inhibitor into the Brain Parenchyma Via a Prodrug Approach Can Decrease Oxidative Stress and Neuroinflammation and Improve Cell Survival” (Molecular Neurobiology, 2020)
